Measurements reported in patent publication US9364448B2, “Nitisinone for treatment of oculocutaneous/ocular albinism and for increasing pigmentation” (The United States of America, as represented by the …, priority 2010, dated 2016).
Where a chain is given by its changes, count along the chain named.

Assays:
[1] = test system: Tyr^c-h/c-h pups; experiment: Prenatal NTBC treatment of pregnant Tyr^c-h/c-h females, pup examination
Experimental: Drug Dosing and Monitoring. Ten C57BL/6J Tyr^c-2J/c-2J and ten C57BL/6Tyr^c-h/c-h mice, 3-4 months of age were designated for treatment with NTBC (Swedish Orphan Drug, Stockholm, Sweden). An equal number of age-matched controls of each genotype designated to receive vehicle treatment. NTBC was dissolved in 2 M NaOH and brought to neutral pH before administration to mice. Coat color, iris transillumination and fundus appearance were photodocumented prior to treatment. Because pigment deposition in hair is stimulated with new hair growth, a section of each mouse's coat was shaved prior to the beginning of the experiment. Drug or vehicle was given every other day via oral gavages, at a dosage of about 4 mg/kg, in a volume of about 0.2-0.3 ml. […] Coat color, iris transillumination and fundus appearance were photodocumented at the end of 1 month of treatment or vehicle dosing. For prenatal treatment experiments, pregnancy was determined by a maternal weight gain of >2 g over 7-9 days, after observing a vaginal mucus plug. Treatment with 4 mg/kg NTBC was initiated daily at day 9 or 10 of pregnancy by oral gavage, and given until birth of the litter. At that point, every-other-day oral treatment of the mother was initiated until time of weaning.

[2] = biological target: T1, H420R mouse tyrosinase (Mus musculus, UniProt P11344, H420R); experiment: Tyrosinase protein stability in CHO cells with cycloheximide, H420R; type: cell-based; conditions: 1 mM tyrosine, later time points (9 and 24 hours)
T1 construct: expressed in transfected cells; host or cells: CHO cells, pcDNA3.1
T1 sequence (P11344 19-533 H420R): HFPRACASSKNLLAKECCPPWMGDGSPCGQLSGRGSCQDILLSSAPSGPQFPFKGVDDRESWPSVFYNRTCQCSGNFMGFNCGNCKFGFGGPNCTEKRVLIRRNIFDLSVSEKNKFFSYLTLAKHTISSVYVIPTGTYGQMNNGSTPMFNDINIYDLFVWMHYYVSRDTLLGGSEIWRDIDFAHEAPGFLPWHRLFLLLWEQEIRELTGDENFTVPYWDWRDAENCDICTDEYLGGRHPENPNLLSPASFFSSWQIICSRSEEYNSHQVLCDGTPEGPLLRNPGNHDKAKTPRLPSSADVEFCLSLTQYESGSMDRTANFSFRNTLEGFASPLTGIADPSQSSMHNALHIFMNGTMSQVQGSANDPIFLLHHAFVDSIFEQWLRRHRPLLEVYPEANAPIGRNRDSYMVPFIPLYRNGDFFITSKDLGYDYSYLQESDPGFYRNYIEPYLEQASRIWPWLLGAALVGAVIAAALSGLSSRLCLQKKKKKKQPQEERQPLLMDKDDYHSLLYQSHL
Experimental: (§1) In Vitro Expression and Enzyme Activity. The expression construct of mouse Tyr was a kind gift of Dr. C. Olivares from the School of Medicine of the University of Murcia (Spain). This construct was prepared in the pcDNA3.1 expression vector (Invitrogen, Carlsbad, Calif.) using EcoRI/XbaI restriction sites and based on the mouse Tyr clone obtained as described previously in C. Olivares, et al., Biochem. J., 354:131 (2001). Constructs of tyrosinase gene mutant variants, with changes corresponding to missense mutations R77L and H420R in the mouse tyrosinase protein sequence, were created using standard methodologies (Mutagenex Inc., Piscataway, N.J.). […]
(§2) Chinese hamster ovary cells (CHO) (generous gift from Dr. J. T. Wroblewski from the Pharmacology Department, Georgetown University Medical Center, Washington D.C.) were grown at a temperature of about 37° C. in DMEM media, in the presence of 10% fetal bovine serum, 1% penicillin and 4.5 g […] per 0.5 liter of media. […] The total protein content in protein lysates was determined spectrophotometrically as a 280/260 ratio. Protein expression was analyzed by Western blotting, and GAPDH was used as an internal loading control. For the analysis, Western blots were scanned, intensities of protein bands were determined, and ratios of band intensities for the wild type or mutant variants, to that of GAPDH were calculated. […]

[3] = biological target: T2, R77L mouse tyrosinase (Mus musculus, UniProt P11344, R77L); experiment: Tyrosinase protein stability in CHO cells with cycloheximide, R77L; type: cell-based; conditions: 1 mM tyrosine
T2 construct: expressed in transfected cells; host or cells: CHO cells, pcDNA3.1
T2 sequence (P11344 19-533 R77L): T1 sequence (P11344 19-533 H420R) with R59L, R402H
Experimental: as §1, §2

Structure (SMILES)	Fundus appearance of pups, vehicle- vs drug-treated dams ([1]; Tyr^c-h/c-h, 4 mg/kg)	Congenital malformations or systemic illnesses in pups of treated mothers ([1]; Tyr^c-h/c-h, 4 mg/kg prenatal treatment)	Iris pigmentation of pups on clinical examination ([1]; pups of NTBC-treated Tyr^c-h/c-h mothers, 4 mg/kg, near time of weaning)	Coat color of pups ([1]; pups of NTBC-treated Tyr^c-h/c-h mothers, 4 mg/kg, vs vehicle-treated mothers)	Stability of H420R mutant tyrosinase protein relative to GAPDH [2]	Stabilization of R77L mutant tyrosinase protein relative to GAPDH [3]
O=C1CCCC(=O)C1C(=O)c1ccc(C(F)(F)F)cc1[N+](=O)[O-] [NTBC, 2-(-2-nitro-4 trifluoromethylbenzoyl)-1,3 cyclohexanedione]	no significant difference	no obvious congenital malformations or systemic illnesses	significant pigmentation	considerably darker		
N[C@@H](Cc1ccc(O)cc1)C(=O)O [tyrosine]					improved the stability	not statistically significant
